Results reported in the NIST ThermoML archive (doi:10.1021/je0497294).
Several values for one entry are separate records, joined by “and”; a condition that tells them apart may be missing. Identical values can stand only once. ± gives the expanded uncertainty stated by the source.

Legend:
[1] = 298.15 K; for surface tension liquid-gas: Pendant drop shape; for mass density: 101.33 kPa, Liquid
[2] = xn = mol fraction of the nth substance listed; settings: 298.15 K, Pendant drop shape

Cc1ccc(C)c(C)c1 [1,2,4-trimethylbenzene]
surface tension liquid-gas [1]: 29.25 ± 0.33 mN/m | mass density [1]: 871.64 ± 0.41 kg/m3

Cc1ccc(C)c(C)c1 [1,2,4-trimethylbenzene] + C1CCOC1
surface tension liquid-gas ([2]; x2 = 0): 29.25 ± 0.33 mN/m | surface tension liquid-gas ([2]; x2 = 0.0988): 29.11 ± 0.32 mN/m | surface tension liquid-gas ([2]; x2 = 0.2018): 29 ± 0.32 mN/m | surface tension liquid-gas ([2]; x2 = 0.3003): 28.88 ± 0.31 mN/m | surface tension liquid-gas ([2]; x2 = 0.3995): 28.73 ± 0.31 mN/m | surface tension liquid-gas ([2]; x2 = 0.5002): 28.53 ± 0.3 mN/m | surface tension liquid-gas ([2]; x2 = 0.6005): 28.29 ± 0.3 mN/m | surface tension liquid-gas ([2]; x2 = 0.6986): 28.01 ± 0.3 mN/m | surface tension liquid-gas ([2]; x2 = 0.7996): 27.68 ± 0.29 mN/m | surface tension liquid-gas ([2]; x2 = 0.9006): 27.34 ± 0.29 mN/m

Cc1ccc(C)c(C)c1 [1,2,4-trimethylbenzene] + C[S+](C)[O-]
surface tension liquid-gas ([2]; x2 = 0): 29.25 ± 0.33 mN/m | surface tension liquid-gas ([2]; x2 = 0.1007): 28.48 ± 0.32 mN/m | surface tension liquid-gas ([2]; x2 = 0.2007): 28.77 ± 0.32 mN/m | surface tension liquid-gas ([2]; x2 = 0.3007): 28.81 ± 0.32 mN/m | surface tension liquid-gas ([2]; x2 = 0.3995): 29.1 ± 0.32 mN/m | surface tension liquid-gas ([2]; x2 = 0.501): 29.46 ± 0.32 mN/m | surface tension liquid-gas ([2]; x2 = 0.6012): 29.34 ± 0.32 mN/m | surface tension liquid-gas ([2]; x2 = 0.6992): 29.35 ± 0.32 mN/m | surface tension liquid-gas ([2]; x2 = 0.7992): 30.04 ± 0.33 mN/m | surface tension liquid-gas ([2]; x2 = 0.9013): 35.71 ± 0.38 mN/m

Cc1ccc(C)c(C)c1 [1,2,4-trimethylbenzene] + ClC(Cl)(Cl)Cl
surface tension liquid-gas ([2]; x2 = 0): 29.25 ± 0.33 mN/m | surface tension liquid-gas ([2]; x2 = 0.0496): 29.13 ± 0.32 mN/m | surface tension liquid-gas ([2]; x2 = 0.0996): 29.04 ± 0.32 mN/m | surface tension liquid-gas ([2]; x2 = 0.1986): 28.89 ± 0.32 mN/m | surface tension liquid-gas ([2]; x2 = 0.3001): 28.72 ± 0.32 mN/m | surface tension liquid-gas ([2]; x2 = 0.4006): 28.5 ± 0.31 mN/m | surface tension liquid-gas ([2]; x2 = 0.5987): 28.24 ± 0.31 mN/m | surface tension liquid-gas ([2]; x2 = 0.6986): 27.89 ± 0.3 mN/m | surface tension liquid-gas ([2]; x2 = 0.7985): 27.54 ± 0.3 mN/m | surface tension liquid-gas ([2]; x2 = 0.9011): 27.13 ± 0.29 mN/m

Cc1cc(C)cc(C)c1 [1,3,5-trimethylbenzene]
surface tension liquid-gas [1]: 28.09 ± 0.31 mN/m and 26.76 ± 0.3 mN/m | mass density [1]: 861.03 ± 0.38 kg/m3

Cc1cc(C)cc(C)c1 [1,3,5-trimethylbenzene] + C1CCOC1
surface tension liquid-gas ([2]; x2 = 0): 28.09 ± 0.31 mN/m | surface tension liquid-gas ([2]; x2 = 0.0481): 27.88 ± 0.31 mN/m | surface tension liquid-gas ([2]; x2 = 0.2021): 27.72 ± 0.3 mN/m | surface tension liquid-gas ([2]; x2 = 0.3002): 27.57 ± 0.3 mN/m | surface tension liquid-gas ([2]; x2 = 0.4): 27.44 ± 0.3 mN/m | surface tension liquid-gas ([2]; x2 = 0.5004): 27.32 ± 0.29 mN/m | surface tension liquid-gas ([2]; x2 = 0.601): 27.23 ± 0.29 mN/m | surface tension liquid-gas ([2]; x2 = 0.7003): 27.15 ± 0.29 mN/m | surface tension liquid-gas ([2]; x2 = 0.7989): 27.09 ± 0.29 mN/m | surface tension liquid-gas ([2]; x2 = 0.9): 27.06 ± 0.29 mN/m

Cc1cc(C)cc(C)c1 [1,3,5-trimethylbenzene] + C[S+](C)[O-]
surface tension liquid-gas ([2]; x2 = 0): 28.09 ± 0.31 mN/m | surface tension liquid-gas ([2]; x2 = 0.1023): 27.3 ± 0.3 mN/m | surface tension liquid-gas ([2]; x2 = 0.1987): 26.92 ± 0.3 mN/m | surface tension liquid-gas ([2]; x2 = 0.3027): 26.7 ± 0.3 mN/m | surface tension liquid-gas ([2]; x2 = 0.401): 27.41 ± 0.3 mN/m | surface tension liquid-gas ([2]; x2 = 0.4999): 28.4 ± 0.31 mN/m | surface tension liquid-gas ([2]; x2 = 0.6003): 30.09 ± 0.33 mN/m | surface tension liquid-gas ([2]; x2 = 0.699): 32.05 ± 0.34 mN/m | surface tension liquid-gas ([2]; x2 = 0.8003): 34.77 ± 0.37 mN/m | surface tension liquid-gas ([2]; x2 = 0.8998): 37.92 ± 0.39 mN/m

Cc1cc(C)cc(C)c1 [1,3,5-trimethylbenzene] + ClC(Cl)(Cl)Cl
surface tension liquid-gas ([2]; x1 = 1): 26.76 ± 0.3 mN/m

C[S+](C)[O-] [dimethyl sulfoxide]
surface tension liquid-gas [1]: 42.09 ± 0.43 mN/m | mass density [1]: 1095.54 ± 0.42 kg/m3

C[S+](C)[O-] [dimethyl sulfoxide] + Cc1cc(C)cc(C)c1
surface tension liquid-gas ([2]; x1 = 1): 42.09 ± 0.43 mN/m

C[S+](C)[O-] [dimethyl sulfoxide] + Cc1ccc(C)c(C)c1
surface tension liquid-gas ([2]; x1 = 1): 42.09 ± 0.43 mN/m

ClC(Cl)(Cl)Cl [tetrachloromethane]
surface tension liquid-gas [1]: 27.76 ± 0.3 mN/m and 26.76 ± 0.29 mN/m and 28.09 ± 0.3 mN/m | mass density [1]: 1583.8 ± 0.76 kg/m3

ClC(Cl)(Cl)Cl [tetrachloromethane] + Cc1cc(C)cc(C)c1
surface tension liquid-gas ([2]; x2 = 0): 28.09 ± 0.3 mN/m | surface tension liquid-gas ([2]; x2 = 0.1009): 27.77 ± 0.3 mN/m | surface tension liquid-gas ([2]; x2 = 0.2014): 27.53 ± 0.3 mN/m | surface tension liquid-gas ([2]; x2 = 0.2994): 27.29 ± 0.3 mN/m | surface tension liquid-gas ([2]; x2 = 0.4007): 27.1 ± 0.3 mN/m | surface tension liquid-gas ([2]; x2 = 0.4998): 26.99 ± 0.3 mN/m | surface tension liquid-gas ([2]; x2 = 0.5995): 26.91 ± 0.3 mN/m | surface tension liquid-gas ([2]; x2 = 0.6988): 26.86 ± 0.3 mN/m | surface tension liquid-gas ([2]; x2 = 0.797): 26.83 ± 0.3 mN/m | surface tension liquid-gas ([2]; x2 = 0.9012): 26.81 ± 0.3 mN/m

ClC(Cl)(Cl)Cl [tetrachloromethane] + Cc1ccc(C)c(C)c1
surface tension liquid-gas ([2]; x1 = 1): 26.76 ± 0.29 mN/m

C1CCOC1 [tetrahydrofuran]
surface tension liquid-gas [1]: 27.04 ± 0.29 mN/m | mass density [1]: 882.06 ± 0.21 kg/m3

C1CCOC1 [tetrahydrofuran] + Cc1cc(C)cc(C)c1
surface tension liquid-gas ([2]; x1 = 1): 27.04 ± 0.29 mN/m

C1CCOC1 [tetrahydrofuran] + Cc1ccc(C)c(C)c1
surface tension liquid-gas ([2]; x1 = 1): 27.04 ± 0.29 mN/m
